Several values for one entry are separate records, joined by “and”; a condition that tells them apart may be missing. Equal entries are not always repeated. ± gives the uncertainty stated by the source.
Assay: xn = mol fraction of the nth substance listed

CN(C)CCO + O
viscosity
Details	293.15 K	298.15 K	303.15 K	308.15 K	313.15 K	318.15 K	323.15 K
101 kPa, x1 = 0.03444	–	–	1.45 ± 0.06 mPa·s	–	1.14 ± 0.05 mPa·s	–	0.91 ± 0.04 mPa·s
101 kPa, x1 = 0.05	–	–	1.921 ± 0.018 mPa·s	1.657 ± 0.015 mPa·s	–	1.271 ± 0.013 mPa·s	–
101 kPa, x1 = 0.07971	–	–	2.95 ± 0.12 mPa·s and 2.92 ± 0.06 mPa·s	–	2.01 ± 0.04 mPa·s	–	1.56 ± 0.06 mPa·s and 1.51 ± 0.03 mPa·s
101 kPa, x1 = 0.08	4.245 ± 0.025 mPa·s	3.487 ± 0.023 mPa·s	2.898 ± 0.021 mPa·s	2.44 ± 0.02 mPa·s	–	1.791 ± 0.019 mPa·s	1.557 ± 0.018 mPa·s
101 kPa, x1 = 0.1003	–	–	3.662 ± 0.027 mPa·s	3.042 ± 0.023 mPa·s	2.555 ± 0.02 mPa·s	2.183 ± 0.018 mPa·s	–
101 kPa, x1 = 0.1187	–	–	4.64 ± 0.1 mPa·s	–	3.19 ± 0.07 mPa·s	–	2.31 ± 0.05 mPa·s
101 kPa, x1 = 0.1419	–	–	5.19 ± 0.21 mPa·s	–	–	–	2.51 ± 0.1 mPa·s
101 kPa, x1 = 0.1993	–	–	7.496 ± 0.047 mPa·s	6.012 ± 0.044 mPa·s	4.87 ± 0.035 mPa·s	4.018 ± 0.029 mPa·s	–
101 kPa, x1 = 0.2947	–	–	9.838 ± 0.062 mPa·s	7.806 ± 0.056 mPa·s	6.256 ± 0.045 mPa·s	5.104 ± 0.037 mPa·s	–
101 kPa, x1 = 0.3489	–	–	10.24 ± 0.066 mPa·s	8.126 ± 0.058 mPa·s	6.525 ± 0.046 mPa·s	5.309 ± 0.038 mPa·s	–
101 kPa, x1 = 0.4004	–	–	10.1 ± 0.066 mPa·s	8.019 ± 0.057 mPa·s	6.443 ± 0.046 mPa·s	5.268 ± 0.038 mPa·s	–
101 kPa, x1 = 0.453	–	–	9.546 ± 0.063 mPa·s	7.626 ± 0.054 mPa·s	6.189 ± 0.044 mPa·s	5.067 ± 0.036 mPa·s	–
101 kPa, x1 = 0.504	–	–	8.735 ± 0.058 mPa·s	7.048 ± 0.05 mPa·s	5.741 ± 0.041 mPa·s	4.741 ± 0.034 mPa·s	–
101 kPa, x1 = 0.6047	–	–	7.076 ± 0.048 mPa·s	5.815 ± 0.041 mPa·s	4.809 ± 0.034 mPa·s	4.041 ± 0.029 mPa·s	–
101 kPa, x1 = 0.7044	–	–	5.567 ± 0.038 mPa·s	4.675 ± 0.033 mPa·s	3.934 ± 0.028 mPa·s	3.341 ± 0.024 mPa·s	–
101 kPa, x1 = 0.8062	–	–	4.37 ± 0.03 mPa·s	3.722 ± 0.026 mPa·s	3.184 ± 0.023 mPa·s	2.756 ± 0.02 mPa·s	–
101 kPa, x1 = 0.9046	–	–	3.485 ± 0.025 mPa·s	3.015 ± 0.022 mPa·s	2.615 ± 0.019 mPa·s	2.293 ± 0.018 mPa·s	–
101.3 kPa, x1 = 0.1001	6.55 ± 0.06 mPa·s	–	4 ± 0.04 mPa·s	–	2.56 ± 0.03 mPa·s	–	–
101.3 kPa, x1 = 0.1999	10.56 ± 0.09 mPa·s	–	6.7 ± 0.06 mPa·s	–	4.2 ± 0.04 mPa·s	–	3.19 ± 0.03 mPa·s
101.3 kPa, x1 = 0.3	13.17 ± 0.11 mPa·s	–	8.53 ± 0.07 mPa·s	–	5.23 ± 0.05 mPa·s	–	3.69 ± 0.03 mPa·s
101.3 kPa, x1 = 0.4	14.4 ± 0.12 mPa·s	–	9.37 ± 0.08 mPa·s	–	5.7 ± 0.05 mPa·s	–	3.86 ± 0.04 mPa·s
101.3 kPa, x1 = 0.5	14.13 ± 0.12 mPa·s	–	9.3 ± 0.08 mPa·s	–	5.61 ± 0.05 mPa·s	–	3.65 ± 0.04 mPa·s
101.3 kPa, x1 = 0.6001	12.81 ± 0.11 mPa·s	–	8.61 ± 0.08 mPa·s	–	5.08 ± 0.05 mPa·s	–	3.16 ± 0.03 mPa·s
101.3 kPa, x1 = 0.6998	10.51 ± 0.09 mPa·s	–	7.1 ± 0.06 mPa·s	–	4.26 ± 0.04 mPa·s	–	2.64 ± 0.03 mPa·s
101.3 kPa, x1 = 0.8	7.76 ± 0.07 mPa·s	–	5.27 ± 0.05 mPa·s	–	–	–	2.12 ± 0.03 mPa·s
101.3 kPa, x1 = 0.9001	5.2 ± 0.05 mPa·s	–	3.53 ± 0.04 mPa·s	–	2.4 ± 0.03 mPa·s	–	1.84 ± 0.03 mPa·s

From the CheMixHub viscosity set
